Assays:
[1] = tested on: rat uterine decidualization; assay: Rat decidualization assay; conditions: average over dose-response curves; decidual response; s.c.
T47D cells = assay: T47D cell proliferation assay (BrdU incorporation); format: cell-based; conditions: Homo sapiens, decrease in trimegestone induced BrdU incorporation (0.03 nM trimegestone), individual studies
Procedure: 3. T47D Cell Proliferation Assay
The objective of this assay is the determination of progestational and antiprogestational potency by using a cell proliferation assay in T47D cells. A compound's effect on DNA synthesis in T47D cells is measured.
DMEM:F12 (1:1) (GIBCO, BRL) supplemented with 10% (v/v) fetal bovine serum (not heat-inactivated), 100 U/ml penicillin, […], and 2 mM GlutaMax (GIBCO, BRL).
Minimum Essential Medium (MEM) (#51200-038GIBCO, BRL) phenol red-free supplemented with 0.5% charcoal stripped fetal bovine serum, 100 U/ml penicillin, […] streptomycin, and 2 mM GlutaMax (GIBCO, BRL). […]
At the end of BrdU labeling, the medium is removed and BrdU incorporation is measured using a cell proliferation ELISA kit (#RPN 250, Amersham Life Science) according to manufacturer's instructions. […] Then 25 μl of 1 M sulfuric acid is added to each well to stop color reaction and optical density is read in a plate reader at 450 nm within 5 min.
Square root-transformed data are used for analysis of variance and nonlinear dose response curve fitting for both agonist and antagonist modes. […] EC50 or IC50 values are calculated from the retransformed values. […]

average EC50 [1] [mg/kg. s.c.]	Structure (SMILES)	other results
0.10	C#C[C@]1(O)CC[C@H]2[C@@H]3CCC4=CC(=O)CC[C@@H]4[C@H]3C(=C)C[C@@]21CC [3-Ketodesogestrel]	
	CC1(C)OC(=O)Nc2ncc(-c3cccc(Cl)c3)cc21 [Example 4, 6-(3-Chloro-phenyl)-4,4-dimethyl-1,4-dihydro-3-oxa-1,8-diaza-naphthalene-2-one]	melting point: 214 to 215 °C
0.10	C#C[C@]1(O)CC[C@H]2[C@@H]3CCC4=CC(=O)CC[C@@H]4[C@H]3CC[C@@]21CC [Levonorgestrel]	
	CC#C[C@]1(O)CC[C@H]2[C@@H]3CCC4=CC(=O)CCC4=C3[C@@H](c3ccc(N(C)C)cc3)C[C@@]21C [RU486]	IC50 (T47D cells): 0.011 nM

Reference: patent publication US20020111355A1, “Cyclic urea and cyclic amide derivatives” (American Home Products Corporation, priority 1999, published 2002)
